Laboratory results from patent publication US9618524B2, “Method, composition, isolation and identification of a plaque particle and related biomarker” (Plaxgen Inc., priority 2012, dated 2017).

What was measured:
Experiment in all cases: Mass spectroscopy proteomics, semi-quantitative binding affinity of serum proteins (plaqueproteome, Table 2)
Conditions in all cases: higher number = stronger affinity
[1] = target: T1, Abeta-42 plaque particles (Homo sapiens, UniProt P05067)
T1 construct: Abeta 1-42
Method in brief: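 AD patient serum or plasma (50% in PBS) was incubated with Abeta-42 aggregates (30 μg) for 1 h at 37 °C, then stained with Thioflavin S for 30 min. Labeled particles were FACS-sorted, trypsin/Lys-C digested overnight and analyzed by MS/MS. Sequest searched human UniProt; Scaffold/Protein Prophet validated the identifications.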

[2] = system: High Density cholesterol (Chl Large) plaque particles; design: species or system human
Method in brief: (§1)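 Read-out is MS/MS protein identification (Sequest, strict trypsin, 20 ppm parent tolerance; Scaffold probabilities) of serum proteins bound to flow-sorted cholesterol plaque particles. These particles formed when 50% atherosclerotic serum was incubated with 30 μg cholesterol aggregates for 1 hr at 37° C.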

[3] = system: Low density cholesterol (Chl small) plaque particles; design: species or system human
Method in brief: as §1

[4] = target: T2, alpha-synuclein plaque particles (Homo sapiens, UniProt P37840)
T2 construct: 140 amino acids polypeptide
Method in brief: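 AD-subject plasma or serum (800 μL of 50%) mixed with 30 μg preformed alpha-synuclein aggregates for 1 h at 37 °C; Thioflavin S-positive particles isolated by flow sorting. After reduction, acrylamide alkylation and overnight tryptic digestion, serum proteins identified by MS/MS with Sequest and Scaffold.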

Tau plaque particles = system: Tau plaque particles; design: species or system human
Method in brief: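 Synthetic Tau-74 and Tau-275 peptides (1 mg/mL PBS, 37° C, 2 h) aggregated; 30 μg aggregates incubated with 50% serum/plasma 1 h at 37° C, stained with Thioflavin S, and plaque particles sorted by flow cytometry. Bound proteins trypsin-digested and identified by MS/MS against human UniProt.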

Row | Substance | Semi-quantitative analysis of proteins binding to different plaque particles: Abeta-42 [1] | Semi-quantitative analysis of proteins binding to different plaque particles: Chl Large [2] | Semi-quantitative analysis of proteins binding to different plaque particles: Chl small [3] | Semi-quantitative analysis of proteins binding to different plaque particles: Synuclein [4] | Semi-quantitative analysis of proteins binding to different plaque particles: Tau (Tau plaque particles)
1 | Ig kappa chain V-I region CAR | 5 | 1 | 1 | 1 | 1
2 | Ig kappa chain V-I region DE | 5 | 5 | 1 | 3 | 2
3 | Ig kappa chain V-I region HK102 | 5 | 1 | 1 | 1 | 1
4 | Ig kappa chain V-I region Mev | 0 | 1 | 1 | 0 | 0
5 | Ig kappa chain V-I region Ni | 5 | 2 | 2 | 2 | 3
6 | Ig kappa chain V-I region Wes | 2 | 2 | 1 | 2 | 2
7 | Ig kappa chain V-III region IARC/BL41 | 0 | 0 | 1 | 0 | 2
8 | Ig kappa chain V-III region NG9 | 0 | 2 | 1 | 2 | 3
9 | Ig kappa chain V-III region POM | 0 | 1 | 1 | 0 | 2
10 | Ig kappa chain V-III region VG | 0 | 1 | 0 | 1 | 0
11 | Ig lambda chain V-IV region Hil | 0 | 0 | 1 | 0 | 1
12 | Ig lambda-2 chain C regions | 9 | 5 | 7 | 8 | 10
13 | Ig lambda-6 chain C region | 5 | 3 | 3 | 6 | 5
14 | Ig lambda-7 chain C region | 2 | 3 | 2 | 4 | 3
15 | Immunoglobulin J chain | 0 | 1 | 1 | 2 | 1
16 | Immunoglobulin lambda-like polypeptide 5 | 9 | 5 | 7 | 8 | 11
17 | Isoform 2 of Annexin A2 | 2 | 0 | 0 | 0 | 0
18 | Isoform 2 of Clusterin | 4 | 6 | 4 | 7 | 5
19 | Isoform 2 of Fibrinogen alpha chain | 0 | 0 | 1 | 0 | 1
20 | Isoform 2 of Protein SET | 4 | 0 | 0 | 0 | 0
21 | Isoform 3 of Fibronectin | 9 | 25 | 19 | 16 | 23
22 | Isoform MBP-1 of Alpha-enolase | 7 | 0 | 0 | 0 | 0
23 | Isoform Short of Heterogeneous nuclear ribonucleoprotein | 4 | 0 | 0 | 0 | 0
24 | Lumican | 0 | 4 | 3 | 0 | 0
25 | Lysozyme C | 4 | 0 | 0 | 0 | 0
26 | Myosin-1 | 22 | 0 | 0 | 0 | 0
27 | Myosin-6 | 17 | 0 | 0 | 0 | 0
